Data: patent publication US11912701B2, “Protein kinase inhibitors for promoting liver regeneration or reducing or preventing hepatocyte death” (HEPAREGENIX GMBH, priority 2018, dated 2024)
Like-named read-outs stand apart in the source and are kept apart here.

Key:
[1] = target: T1, MKK4 (Homo sapiens, UniProt P45985); test: KINOMEscan competition binding assay, MKK4; details: residual percent of control binding (PoC) at 100 nM
T1 construct: S84/D399; host or cells: HEK-293
T1 sequence (P45985 84-399): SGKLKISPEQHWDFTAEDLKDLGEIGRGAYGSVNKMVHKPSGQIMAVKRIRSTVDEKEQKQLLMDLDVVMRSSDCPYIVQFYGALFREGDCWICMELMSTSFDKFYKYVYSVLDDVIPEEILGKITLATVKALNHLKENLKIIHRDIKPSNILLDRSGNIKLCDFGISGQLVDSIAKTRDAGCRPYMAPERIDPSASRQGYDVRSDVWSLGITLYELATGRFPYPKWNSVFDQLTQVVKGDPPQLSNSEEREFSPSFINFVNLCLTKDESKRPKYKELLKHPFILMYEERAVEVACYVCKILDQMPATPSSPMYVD
Description: (§1) The assay was performed by combining three components: DNA-tagged kinase; immobilized ligand; and a test compound. The ability of the test compound to compete with the immobilized ligand was measured via quantitative PCR of the DNA tag. The technology is described in detail in Fabian, M. A. et al. A small molecule-kinase interaction map for clinical kinase inhibitors. Nat. […] Nat.
(§2) For investigation of the affinity to MKK4, BRaf, MKK7 and JNK1, the kinases were produced in HEK-293 cells and subsequently tagged with DNA for qPCR detection. […] The liganded beads were blocked with excess biotin and washed with blocking buffer (SEABLOCK™ (Pierce), 1% BSA, 0.05% TWEEN®20, 1 mM DTT) to remove unbound ligand and to reduce nonspecific binding. […] All reactions were performed in polystyrene 96-well plates in a final volume of 0.135 mL. […] The kinase concentration in the eluates was measured by qPCR.
(§3) The test compounds were provided as 10 mM stock solutions. The test solutions at indicated final concentrations were prepared at DiscoverX.
Potency of representative examples against the protein kinases MKK4, BRaf, MKK7 and JNK1 expressed as residual percent of control binding (PoC), was determined at a concentration of 100 nM. The determined potencies are categorized as follows: […]

[2] = target: T2, BRaf (Homo sapiens, UniProt P15056); test: KINOMEscan competition binding assay, BRaf; details: ratio PoC (off-target)/PoC (MKK4)
T2 construct: purchased ProQinase GmbH, Freiburg, Germany (33PanQinase Assay Service)
Description: as §1, §2, §3
(§4) Potency of representative examples against the protein kinases MKK4, BRaf, MKK7 and JNK1 expressed as residual percent of control binding (PoC), was determined at a concentration of 100 nM. The determined potencies are categorized as follows:
(§5) The binding selectivity of representative examples against the protein kinases BRaf, MKK7 and JNK1, altogether denominated as “off-targets” is determined by the ratios of PoC (off-target)/PoC (MKK4).

[3] = target: T3, MKK4 (Homo sapiens, UniProt P45985); test: 33PanQinase enzyme assay, MKK4; type: biochemical; details: for remaining activity at 0.1 µM: read-out: Potency MKK4 (residual activity, assay at single concentration)
T3 construct: purchased ProQinase GmbH, Freiburg, Germany (33PanQinase Assay Service)
T3 sequence (P45985 1-399): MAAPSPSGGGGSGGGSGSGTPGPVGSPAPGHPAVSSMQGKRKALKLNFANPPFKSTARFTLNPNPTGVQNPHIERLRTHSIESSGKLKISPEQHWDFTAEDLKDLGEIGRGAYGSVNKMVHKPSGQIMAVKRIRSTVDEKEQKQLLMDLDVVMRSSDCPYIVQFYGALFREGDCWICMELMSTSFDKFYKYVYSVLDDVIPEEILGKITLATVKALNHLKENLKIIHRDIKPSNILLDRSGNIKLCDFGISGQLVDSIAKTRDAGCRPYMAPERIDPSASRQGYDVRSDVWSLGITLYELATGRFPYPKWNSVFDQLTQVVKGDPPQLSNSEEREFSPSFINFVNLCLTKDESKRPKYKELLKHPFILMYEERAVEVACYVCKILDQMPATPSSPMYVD
Method in brief: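 Inhibition measured as 33Pi transfer to substrate after a 60-min, 30 °C reaction, acid-stopped and scintillation-counted.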

[4] = target: T4, MKK7 (Homo sapiens, UniProt O14733); test: KINOMEscan competition binding assay, MKK7; set-up: M1/R419; host or cells: HEK-293; details: ratio PoC (off-target)/PoC (MKK4)
T4 sequence (O14733 1-419): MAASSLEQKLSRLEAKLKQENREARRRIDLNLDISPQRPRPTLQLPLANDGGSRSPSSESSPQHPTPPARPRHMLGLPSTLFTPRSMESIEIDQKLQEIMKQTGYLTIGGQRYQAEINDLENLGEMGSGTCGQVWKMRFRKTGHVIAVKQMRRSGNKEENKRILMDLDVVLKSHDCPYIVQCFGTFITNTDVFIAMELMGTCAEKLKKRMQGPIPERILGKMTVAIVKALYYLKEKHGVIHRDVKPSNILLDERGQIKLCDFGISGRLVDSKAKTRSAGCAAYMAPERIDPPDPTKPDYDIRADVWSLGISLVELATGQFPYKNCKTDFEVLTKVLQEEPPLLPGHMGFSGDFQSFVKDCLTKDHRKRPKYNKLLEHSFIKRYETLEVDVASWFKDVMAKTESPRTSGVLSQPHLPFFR
Description: as §1, §2, §3, §4, §5

[5] = target: JNK1 (Homo sapiens, UniProt P45983); test: KINOMEscan competition binding assay, JNK1; set-up: M1/Q384; host or cells: HEK-293; details: ratio PoC (off-target)/PoC (MKK4)
Description: as §1, §2, §3, §4, §5

T2 sequence (P15056 whole entry, species assumed): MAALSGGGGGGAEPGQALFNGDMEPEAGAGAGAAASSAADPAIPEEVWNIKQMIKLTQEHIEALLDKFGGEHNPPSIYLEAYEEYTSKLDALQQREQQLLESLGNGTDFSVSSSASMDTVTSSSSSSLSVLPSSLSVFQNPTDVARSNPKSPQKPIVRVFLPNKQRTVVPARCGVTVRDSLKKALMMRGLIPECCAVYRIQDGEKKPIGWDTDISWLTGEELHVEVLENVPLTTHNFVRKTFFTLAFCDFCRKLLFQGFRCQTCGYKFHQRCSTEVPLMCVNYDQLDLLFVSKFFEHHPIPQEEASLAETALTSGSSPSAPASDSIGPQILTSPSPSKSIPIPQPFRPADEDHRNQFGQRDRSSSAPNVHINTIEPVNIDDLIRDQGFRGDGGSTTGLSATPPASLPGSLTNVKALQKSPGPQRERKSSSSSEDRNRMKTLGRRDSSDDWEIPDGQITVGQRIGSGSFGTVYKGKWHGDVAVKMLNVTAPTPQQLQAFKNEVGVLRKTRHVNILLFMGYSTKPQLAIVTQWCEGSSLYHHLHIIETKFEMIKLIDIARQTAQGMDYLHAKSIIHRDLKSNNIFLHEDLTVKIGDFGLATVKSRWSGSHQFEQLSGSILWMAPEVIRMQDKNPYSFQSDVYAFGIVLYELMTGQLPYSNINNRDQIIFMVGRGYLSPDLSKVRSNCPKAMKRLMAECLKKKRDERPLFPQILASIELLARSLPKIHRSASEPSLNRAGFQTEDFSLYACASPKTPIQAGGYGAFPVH
JNK1, sequence (P45983 1-384 isoform P45983-2): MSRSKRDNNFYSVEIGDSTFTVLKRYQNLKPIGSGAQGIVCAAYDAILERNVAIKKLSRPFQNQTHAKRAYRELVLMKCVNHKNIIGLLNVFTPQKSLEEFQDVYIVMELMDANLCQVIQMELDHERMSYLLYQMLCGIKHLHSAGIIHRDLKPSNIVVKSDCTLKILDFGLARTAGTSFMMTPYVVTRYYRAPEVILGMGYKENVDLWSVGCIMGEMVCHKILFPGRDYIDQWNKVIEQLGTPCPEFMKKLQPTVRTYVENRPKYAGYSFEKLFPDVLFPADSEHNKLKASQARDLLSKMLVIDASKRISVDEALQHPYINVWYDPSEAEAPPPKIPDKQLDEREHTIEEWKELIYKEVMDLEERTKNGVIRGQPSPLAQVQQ

Row | Compound | MKK4 [% Ctrl @ 100 nM [1] | selectivity based on % Ctrl @100 nM vs. Braf [2] | remaining activity at 0.1 µM ([3]; single concentration 100 nM) [%] | selectivity based on % Ctrl @100 nM vs. MKK7 [4] | selectivity based on % Ctrl @100 nM vs. JNK1 [5] | IC50 ([3]; assay 'IC50', read-out: Potency MKK4 (IC50)) [µM] | remaining activity at 0.1 µM [3] [%]
1 | CCCS(=O)(=O)Nc1ccc(F)c(C(=O)c2c[nH]c3ncc(-c4ccccn4)cc23)c1F [Example 47] | ++ (1 ≤ PoC < 3) | + (10 ≥ ratio > 3) | – | ++ (100 ≥ ratio > 10) | ++ (100 ≥ ratio > 10) | 1 to 10 | –
2 | O=C(c1c(F)ccc(NS(=O)(=O)Cc2ccccc2)c1F)c1c[nH]c2ncc(-c3ccc(OCC(O)CO)cc3)cc12 (centres unmarked) [Example 40, N-(3-(5-(4-(2,3-dihydroxypropoxy)phenyl)-1H-pyrrolo [2,3-b]pyridine-3-carbonyl)-2,4-difluorophenyl)-1-phenylmethanesulfonamide] | +++ (PoC < 1) | +++ (Ratio > 100) | 70 to 90 | +++ (Ratio > 100) | +++ (Ratio > 100) | – | –
3 | CCCS(=O)(=O)Nc1ccc(F)c(C(=O)c2c[nH]c3ncc(-c4ccc5ccoc5c4)cc23)c1F [Example 52] | + (3 ≤ PoC < 30) | ◯ (3 ≥ Ratio) | 70 to 90 | ++ (100 ≥ ratio > 10) | ++ (100 ≥ ratio > 10) | – | –
4 | O=C(c1c(F)ccc(NS(=O)(=O)Cc2ccccc2)c1F)c1c[nH]c2ncc(-c3ccc(OCC(O)CO)cc3Cl)cc12 (centres unmarked) [Example 41, N-(3-(5-(2-chloro-4-(2,3-dihydroxypropoxy)phenyl)-1H-pyrrolo[2,3-b]pyridine-3-carbonyl)-2,4-difluorophenyl)-1-phenylmethane-sulfonamide] | ++ (1 ≤ PoC < 3) | ++ (100 ≥ ratio > 10) | 70 to 90 | ++ (100 ≥ ratio > 10) | ++ (100 ≥ ratio > 10) | – | –
5 | Cc1cccc(CS(=O)(=O)Nc2ccc(F)c(C(=O)c3c[nH]c4ncc(-c5ccc(Cl)cc5)cc34)c2F)c1 [Example 37, N-(3-(5-(4-chlorophenyl)-1H-pyrrolo[2,3-b]pyridine-3-carbonyl)-2,4-difluoro-phenyl)-1-(m-tolyl)methanesulfonamide] | + (3 ≤ PoC < 30) | + (10 ≥ ratio > 3) | – | + (10 ≥ ratio > 3) | + (10 ≥ ratio > 3) | – | 70 to 90

More lines, main results first:

Row | MKK4 [% Ctrl @ 100 nM [1] | selectivity based on % Ctrl @100 nM vs. Braf [2] | remaining activity at 0.1 µM ([3]; single concentration 100 nM) [%] | selectivity based on % Ctrl @100 nM vs. MKK7 [4] | selectivity based on % Ctrl @100 nM vs. JNK1 [5] | IC50 ([3]; assay 'IC50', read-out: Potency MKK4 (IC50)) [µM] | Compound | remaining activity at 0.1 µM [3] [%]
6 | ◯ (30 ≤ PoC) | ◯ (3 ≥ Ratio) | > 90 | ◯ (3 ≥ Ratio) | ◯ (3 ≥ Ratio) | – | CCCS(=O)(=O)Nc1ccc(C#N)c(C(=O)c2c[nH]c3ncc(-c4ccc(Cl)cc4)cc23)c1C#N [Example 62, N-(3-(5-(4-chlorophenyl)-1H-pyrrolo[2,3-b]pyridine-3-carbonyl)-2,4-dicyanophenyl)propane-1-sulfonamide] | –
7 | + (3 ≤ PoC < 30) | ◯ (3 ≥ Ratio) | 70 to 90 | + (10 ≥ ratio > 3) | + (10 ≥ ratio > 3) | – | CCCS(=O)(=O)Nc1ccc(F)c(C(=O)c2c[nH]c3ncc(-c4cccc(Cl)c4)cc23)c1F [Example 32, N-(3-(5-(3-chlorophenyl)-1H-pyrrolo[2,3-b]pyridine-3-carbonyl)-2,4-difluorophenyl)propane-1-sulfonamide] | –
8 | ◯ (30 ≤ PoC) | ◯ (3 ≥ Ratio) | 70 to 90 | ◯ (3 ≥ Ratio) | ◯ (3 ≥ Ratio) | – | CCCS(=O)(=O)Nc1ccc(Br)c(C(=O)c2c[nH]c3ncc(-c4ccc(Cl)cc4)cc23)c1Br [Example 2b, N-(2,4-dibromo-3-(5-(4-chlorophenyl)-1H-pyrrolo[2,3-b]pyridine-3-carbonyl)phenyl)propane-1-sulfonamide] | –
9 | ◯ (30 ≤ PoC) | ◯ (3 ≥ Ratio) | 50 to 70 | ◯ (3 ≥ Ratio) | ◯ (3 ≥ Ratio) | – | CCCS(=O)(=O)Nc1cccc(C(=O)c2c[nH]c3ncc(-c4ccc(Cl)cc4)cc23)c1C#N [Example 63, N-(3-(5-(4-chlorophenyl)-1H-pyrrolo[2,3-b]pyridine-3-carbonyl)-2-cyanophenyl)propane-1-sulfonamide] | –
10 | + (3 ≤ PoC < 30) | ++ (100 ≥ ratio > 10) | 70 to 90 | ++ (100 ≥ ratio > 10) | ++ (100 ≥ ratio > 10) | – | CCCS(=O)(=O)Nc1ccc(F)c(C(=O)c2c[nH]c3ncc(-c4ccccc4F)cc23)c1F [Example 34, N-(2,4-difluoro-3-(5-(2-fluorophenyl)-1H-pyrrolo[2,3-b]pyridine-3-carbonyl)phenyl)propane-1-sulfonamide] | –
11 | + (3 ≤ PoC < 30) | ◯ (3 ≥ Ratio) | 70 to 90 | + (10 ≥ ratio > 3) | ◯ (3 ≥ Ratio) | – | CCCS(=O)(=O)Nc1ccc(F)c(C(=O)c2c[nH]c3ncc(-c4ccc5ccsc5c4)cc23)c1F [Example 51] | –
12 | + (3 ≤ PoC < 30) | + (10 ≥ ratio > 3) | 70 to 90 | + (10 ≥ ratio > 3) | + (10 ≥ ratio > 3) | – | CCCS(=O)(=O)Nc1c(Cl)ccc(C(=O)c2c[nH]c3ncc(-c4ccc(Cl)cc4)cc23)c1F [Example 2d] | –
13 | ◯ (30 ≤ PoC) | ◯ (3 ≥ Ratio) | > 90 | + (10 ≥ ratio > 3) | + (10 ≥ ratio > 3) | – | CCCS(=O)(=O)Nc1ccc(C#N)c(C(=O)c2c[nH]c3ncc(-c4ccc(Cl)cc4)cc23)c1F [Example 61, N-(3-(5-(4-chlorophenyl)-1H-pyrrolo[2,3-b]pyridine-3-carbonyl)-4-cyano-2-fluorophenyl)propane-1-sulfonamide] | –
